In PubChem BioAssay AID1963441 (Molecular Pharmacology Branch, DTP, NCI, 2024):
pIC50: −log10 of the molar value.

Tested on: NCI-H1876 complex spheroid growth, % test/control
Test: Anticancer human tumor NCI-H1876 cell line growth inhibition [Asc];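 note: compound exposure lasted 7 days starting three days after seeding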;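 for viability, T/C: 100% = DMSO vehicle control wells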
Conditions: for pIC50: curve of first compound; for viability, T/C: stronger effect = lower value
Summary of the method: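 Complex spheroids combining tumor cells with HUVEC endothelial cells and human MSCs, at 37 degrees C, 5% CO2; agents tested alone or combined, half-log dilutions from at or near clinical Cmax, or 10 microM if Cmax unknown.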

[1] = second compound 0.00316 µM, first compound 0.0316 µM
[2] = second compound 0.00316 µM, first compound 0.1 µM
[3] = second compound 0.00316 µM, first compound 0.316 µM
[4] = second compound 0.00316 µM, first compound 1 µM
[5] = second compound 0.01 µM, first compound 0.0316 µM
[6] = second compound 0.01 µM, first compound 0.1 µM
[7] = second compound 0.01 µM, first compound 0.316 µM
[8] = second compound 0.01 µM, first compound 1 µM
[9] = second compound 0.0316 µM, first compound 0.0316 µM
[10] = second compound 0.0316 µM, first compound 0.1 µM
[11] = second compound 0.0316 µM, first compound 0.316 µM
[12] = second compound 0.0316 µM, first compound 1 µM
[13] = second compound 0.1 µM, first compound 0.0316 µM
[14] = second compound 0.1 µM, first compound 0.1 µM
[15] = second compound 0.1 µM, first compound 0.316 µM
[16] = second compound 0.1 µM, first compound 1 µM
[17] = second compound 0.316 µM, first compound 0.0316 µM
[18] = second compound 0.316 µM, first compound 0.1 µM
[19] = second compound 0.316 µM, first compound 0.316 µM
[20] = second compound 0.316 µM, first compound 1 µM
[21] = second compound 1 µM, first compound 0.0316 µM
[22] = second compound 1 µM, first compound 0.1 µM
[23] = second compound 1 µM, first compound 0.316 µM
[24] = second compound 1 µM, first compound 1 µM
[25] = second compound 0.00316 µM, first compound 0.00316 µM
[26] = second compound 0.00316 µM, first compound 0.01 µM
[27] = second compound 0.01 µM, first compound 0.00316 µM
[28] = second compound 0.01 µM, first compound 0.01 µM
[29] = second compound 0.0316 µM, first compound 0.00316 µM
[30] = second compound 0.0316 µM, first compound 0.01 µM
[31] = second compound 0.1 µM, first compound 0.00316 µM
[32] = second compound 0.1 µM, first compound 0.01 µM
[33] = second compound 0.316 µM, first compound 0.00316 µM
[34] = second compound 0.316 µM, first compound 0.01 µM
[35] = second compound 1 µM, first compound 0.00316 µM
[36] = second compound 1 µM, first compound 0.01 µM

Structure (SMILES): C=CC(=O)N1CCN(c2nc(=O)n(-c3c(C)ccnc3C(C)C)c3nc(-c4c(O)cccc4F)c(F)cc23)C(C)C1 (stereo unspecified) + CNC(C)C(=O)NC1CN(S(=O)(=O)c2cccc(S(=O)(=O)N3CCC4CCC(C(=O)NC(c5ccccc5)c5ccccc5)N4C(=O)C(NC(=O)C(C)NC)C3)c2)CCC2CCC(C(=O)NC(c3ccccc3)c3ccccc3)N2C1=O
- pIC50 (second compound 0.00316 µM): < 5.00
- pIC50 (second compound 0.01 µM): < 5.00
- pIC50 (second compound 0.0316 µM): < 5.00
- pIC50 (second compound 0.1 µM): < 5.00
- pIC50 (second compound 0.316 µM): < 5.00
- pIC50 (second compound 1 µM): < 5.00
- viability, T/C [1]: 103%
- viability, T/C [2]: 87.6%
- viability, T/C [3]: 115%
- viability, T/C [4]: 94.9%
- viability, T/C (second compound 0.00316 µM, first compound 3.16 µM): 121%
- viability, T/C (second compound 0.00316 µM, first compound 10 µM): 131%
- viability, T/C [5]: 104%
- viability, T/C [6]: 99%
- viability, T/C [7]: 99.1%
- viability, T/C [8]: 99.3%
- viability, T/C (second compound 0.01 µM, first compound 3.16 µM): 107%
- viability, T/C (second compound 0.01 µM, first compound 10 µM): 111%
- viability, T/C [9]: 102%
- viability, T/C [10]: 101%
- viability, T/C [11]: 121%
- viability, T/C [12]: 102%
- viability, T/C (second compound 0.0316 µM, first compound 3.16 µM): 116%
- viability, T/C (second compound 0.0316 µM, first compound 10 µM): 114%
- viability, T/C [13]: 100%
- viability, T/C [14]: 106%
- viability, T/C [15]: 104%
- viability, T/C [16]: 106%
- viability, T/C (second compound 0.1 µM, first compound 3.16 µM): 114%
- viability, T/C (second compound 0.1 µM, first compound 10 µM): 106%
- viability, T/C [17]: 114%
- viability, T/C [18]: 101%
- viability, T/C [19]: 100%
- viability, T/C [20]: 101%
- viability, T/C (second compound 0.316 µM, first compound 3.16 µM): 115%
- viability, T/C (second compound 0.316 µM, first compound 10 µM): 109%
- viability, T/C [21]: 111%
- viability, T/C [22]: 91.9%
- viability, T/C [23]: 118%
- viability, T/C [24]: 113%
- viability, T/C (second compound 1 µM, first compound 3.16 µM): 116%
- viability, T/C (second compound 1 µM, first compound 10 µM): 117%

Structure (SMILES): COc1c(OCCCN2CCOCC2)ccc2c3n(c(=NC(=O)c4cnc(N)nc4)nc12)CCN3 + CNC(C)C(=O)NC1CN(S(=O)(=O)c2cccc(S(=O)(=O)N3CCC4CCC(C(=O)NC(c5ccccc5)c5ccccc5)N4C(=O)C(NC(=O)C(C)NC)C3)c2)CCC2CCC(C(=O)NC(c3ccccc3)c3ccccc3)N2C1=O
- pIC50 (second compound 0.00316 µM): < 6.00
- pIC50 (second compound 0.01 µM): 6.13
- pIC50 (second compound 0.0316 µM): 6.10
- pIC50 (second compound 0.1 µM): 6.15
- pIC50 (second compound 0.316 µM): < 6.00
- pIC50 (second compound 1 µM): 6.05
- viability, T/C [25]: 106%
- viability, T/C [26]: 107%
- viability, T/C [1]: 103%
- viability, T/C [2]: 81.5%
- viability, T/C [3]: 64.5%
- viability, T/C [4]: 49.2%
- viability, T/C [27]: 105%
- viability, T/C [28]: 106%
- viability, T/C [5]: 107%
- viability, T/C [6]: 82.1%
- viability, T/C [7]: 63.3%
- viability, T/C [8]: 45%
- viability, T/C [29]: 100%
- viability, T/C [30]: 103%
- viability, T/C [9]: 99.4%
- viability, T/C [10]: 84.1%
- viability, T/C [11]: 62.5%
- viability, T/C [12]: 46.7%
- viability, T/C [31]: 102%
- viability, T/C [32]: 101%
- viability, T/C [13]: 98.6%
- viability, T/C [14]: 82.3%
- viability, T/C [15]: 63.8%
- viability, T/C [16]: 44%
- viability, T/C [33]: 107%
- viability, T/C [34]: 117%
- viability, T/C [17]: 93.6%
- viability, T/C [18]: 86.2%
- viability, T/C [19]: 70%
- viability, T/C [20]: 56.4%
- viability, T/C [35]: 105%
- viability, T/C [36]: 109%
- viability, T/C [21]: 96.6%
- viability, T/C [22]: 86.2%
- viability, T/C [23]: 67.5%
- viability, T/C [24]: 48.2%

Structure (SMILES): NC1CCC(NC2CC2c2ccccc2)CC1 (stereo unspecified) + CNC(C)C(=O)NC1CN(S(=O)(=O)c2cccc(S(=O)(=O)N3CCC4CCC(C(=O)NC(c5ccccc5)c5ccccc5)N4C(=O)C(NC(=O)C(C)NC)C3)c2)CCC2CCC(C(=O)NC(c3ccccc3)c3ccccc3)N2C1=O
- pIC50 (second compound 0.00316 µM): < 7.00
- pIC50 (second compound 0.01 µM): < 7.00
- pIC50 (second compound 0.0316 µM): < 7.00
- pIC50 (second compound 0.1 µM): < 7.00
- pIC50 (second compound 0.316 µM): < 7.00
- pIC50 (second compound 1 µM): < 7.00
- viability, T/C (second compound 0.00316 µM, first compound 0.000316 µM): 119%
- viability, T/C (second compound 0.00316 µM, first compound 0.001 µM): 118%
- viability, T/C [25]: 132%
- viability, T/C [26]: 133%
- viability, T/C [1]: 131%
- viability, T/C [2]: 119%
- viability, T/C (second compound 0.01 µM, first compound 0.000316 µM): 119%
- viability, T/C (second compound 0.01 µM, first compound 0.001 µM): 121%
- viability, T/C [27]: 121%
- viability, T/C [28]: 124%
- viability, T/C [5]: 128%
- viability, T/C [6]: 140%
- viability, T/C (second compound 0.0316 µM, first compound 0.000316 µM): 116%
- viability, T/C (second compound 0.0316 µM, first compound 0.001 µM): 118%
- viability, T/C [29]: 138%
- viability, T/C [30]: 125%
- viability, T/C [9]: 127%
- viability, T/C [10]: 127%
- viability, T/C (second compound 0.1 µM, first compound 0.000316 µM): 121%
- viability, T/C (second compound 0.1 µM, first compound 0.001 µM): 128%
- viability, T/C [31]: 128%
- viability, T/C [32]: 128%
- viability, T/C [13]: 128%
- viability, T/C [14]: 121%
- viability, T/C (second compound 0.316 µM, first compound 0.000316 µM): 131%
- viability, T/C (second compound 0.316 µM, first compound 0.001 µM): 113%
- viability, T/C [33]: 118%
- viability, T/C [34]: 130%
- viability, T/C [17]: 143%
- viability, T/C [18]: 124%
- viability, T/C (second compound 1 µM, first compound 0.000316 µM): 122%
- viability, T/C (second compound 1 µM, first compound 0.001 µM): 129%
- viability, T/C [35]: 136%
- viability, T/C [36]: 131%
- viability, T/C [21]: 137%
- viability, T/C [22]: 143%
